Data from patent publication US6133297A, “Thrombin inhibitors” (Merck & Co., Inc., priority 1998, dated 2000).
Non-standard residues stand in square brackets, D forms with d. Residues, ends and D or L forms follow the SMILES beside them. *: point of attachment. AFC = O=c1cc(C(F)(F)F)c2ccc(N*)cc2o1; pNA = O=[N+]([O-])c1ccc(N*)cc1; Cbz = O=C(OCc1ccccc1)*; Sar = CNCC(=O)O

target: T1, human a-thrombin (Homo sapiens, UniProt P00734); assay: In vitro assay for determining proteinase inhibition (thrombin Ki); type: biochemical; settings: 25° C., 0.05 M TRIS buffer pH 7.4, 0.15 M NaCl, 0.1% PEG
T1 construct: human a-thrombin
Experimental: In vitro Assay for Determining Proteinase Inhibition
(§1) Assays of human a-thrombin and human trypsin were performed at 25° C. in 0.05 M TRIS buffer pH 7.4, 0.15 M NaCl, 0.1% PEG. Trypsin assays also contained 1 mM CaCl2.
(§2) In certain studies with potent inhibitors (Ki <10 nM) where the degree of inhibition of thrombin was high, a more sensitive activity assay was employed. […] Concentrations of stock solutions of Z-GPR-afc were determined from measurements of absorbance at 380 nm of the 7-amino-4-trifluoromethylcoumarin produced upon complete hydrolysis of an aliquot of the stock solution by thrombin.
Activity assays were performed by diluting a stock solution of substrate at least tenfold to a final concentration <0.5 Km into a solution containing enzyme or enzyme equilibrated with inhibitor. Times required to achieve equilibration between enzyme and inhibitor were determined in control experiments. Initial velocities of product formation in the absence (V0) or presence of inhibitor (Vi) were measured. Assuming competitive inhibition, and that unity is negligible compared Km /[S], […] (where [S], [I], and e respectively represent the total concentrations, of substrate, inhibitor and enzyme), the equilibrium constant (Ki) for dissociation of the inhibitor from the enzyme can be obtained from the dependence of V0 /Vi on [I] shown in equation 1.

| Compound | Ki [nM] |
| --- | --- |
| C[C@H](NS(=O)(=O)Cc1ccccc1)C(=O)N[C@H](CCNc1ccncc1)Cc1ccccc1 [Bn 1 BnSO2 -- (S)-CH3] | < 1000 |
| CC(C)[C@@H](CCNc1ccncc1)NC(=O)CNS(=O)(=O)c1ccc(Cl)c(Cl)c1 [(CH3)2 CH2 -- 1 3,4-di-Cl--PhSO2 -- H] | < 1000 |
| O=C(CNS(=O)(=O)c1ccccc1)N[C@H](CNc1ccncc1)Cc1ccccc1 [Bn 0 PhSO2 -- H] | > 1000 |
| COc1cc(C)c(S(=O)(=O)NCC(=O)N[C@H](CCNc2ccncc2)Cc2ccccc2)c(C)c1C [Bn 1 4-OCH3-2,3,6-MePhSO2 -- H] | < 1000 |
| O=C(CNS(=O)(=O)Cc1ccccc1)N[C@H](CCNc1ccncc1)Cc1ccccc1 [Bn 1 BnSO2 -- H] | < 1000 |
| CS(=O)(=O)CC[C@H](NS(=O)(=O)Cc1ccccc1)C(=O)N[C@H](CCNc1ccncc1)Cc1ccccc1 [Bn 1 BnSO2 -- (S)- CH2 CH2 SO2 CH3] | < 1000 |
| C[C@@H](NS(=O)(=O)Cc1ccccc1)C(=O)N[C@H](CCNc1ccncc1)Cc1ccccc1 [Bn 1 BnSO2 -- (R)-CH3] | > 1000 |
| NC(Cc1ccc(Cl)cc1)C(=O)N[C@H](CCNc1ccncc1)Cc1ccccc1 (some centres unmarked) [Bn 1 H 4-ClBn--] | < 1000 |
| O=C(CNS(=O)(=O)C=Cc1ccccc1)N[C@H](CCNc1ccncc1)Cc1ccccc1 [Bn 1 PhCH=CHSO2 -- H] | < 1000 |
| O=C(CNS(=O)(=O)Cc1ccc(Cl)c(Cl)c1)N[C@H](CCNc1ccncc1)Cc1ccccc1 [Bn 1 3,4-di-Cl--BnSO2 -- H] | < 1000 |
| O=C(CNS(=O)(=O)c1ccc(Cl)cc1)N[C@H](CNc1ccncc1)Cc1ccccc1 [Bn 0 4-ClPhSO2 -- H] | > 1000 |
| O=C(CNS(=O)(=O)Cc1ccc(Cl)cc1)N[C@H](CCNc1ccncc1)Cc1ccccc1 [Bn 1 4-Cl--BnSO2 -- H] | < 1000 |
| CC(C)(C)OC(=O)NCC(=O)N[C@H](CNc1ccncc1)Cc1ccccc1 [Bn 0 Boc H] | > 1000 |
| CSCC[C@H](NS(=O)(=O)Cc1ccccc1)C(=O)N[C@H](CCNc1ccncc1)Cc1ccccc1 [Bn 1 BnSO2 -- (S)-CH2 CH2 SCH3] | < 1000 |
| O=C(CNS(=O)(=O)c1ccccc1)N[C@H](CNc1ccncc1)CC1CCCCC1 [c-hexylCH2 -- 0 PhSO2 -- H] | > 1000 |
| CC(C)[C@@H](CCNc1ccncc1)NC(=O)CNS(=O)(=O)Cc1ccccc1 [(CH3)2 CH2 -- 1 BnSO2 -- H] | > 1000 |
| O=C(N[C@H](CCNc1ccncc1)Cc1ccccc1)[C@H](CO)NS(=O)(=O)c1ccc(Cl)c(Cl)c1 [Bn 1 3,4-di-Cl--PhSO2 -- (S)-CH2 OH] | < 1000 |
| O=C(CNS(=O)(=O)c1ccc(Cl)c(Cl)c1)N[C@H](CCNc1ccncc1)Cc1ccccc1 [Bn 1 3,4-di-Cl--PhSO2 -- H] | < 1000 |
| O=C(CNS(=O)(=O)c1ccc(Cl)cc1)N[C@H](CCNc1ccncc1)Cc1ccccc1 [Bn 1 4-Cl--PhSO2 -- H] | < 1000 |
| O=C(CNS(=O)(=O)Cc1ccc(C(F)(F)F)cc1)N[C@H](CCNc1ccncc1)Cc1ccccc1 [Bn 1 4-CF3 --BnSO2 -- H] | < 1000 |
| O=C(CNS(=O)(=O)c1ccc2ccccc2c1)N[C@H](CCNc1ccncc1)Cc1ccccc1 [Bn 1 2-naphthSO2 -- H] | < 1000 |

system: human trypsin; assay: Hydrolysis of p-nitroanilide substrate by human trypsin (405 nm); type: biochemical; settings: substrate for human trypsin, 25° C., pH 7.4, 1 mM CaCl2
Experimental: as §1

| Compound | Km [µM] |
| --- | --- |
| CNCC(=O)N1CCC[C@H]1C(=O)N[C@@H](CCCNC(=N)N)C(=O)Nc1ccc([N+](=O)[O-])cc1 [sar-PR-pna, sarcosine-Pro-Arg-p-nitroanilide] (H-[Sar]-Pro-Arg-pNA) | 59 |

system: thrombin; assay: Thrombin catalyzed hydrolysis of fluorogenic substrate (fluorescence at 500 nm); type: biochemical, human; settings: fluorogenic substrate for thrombin, excitation at 400 nm
Experimental: as §1, §2

| Compound | Km [µM] |
| --- | --- |
| N=C(N)NCCC[C@H](NC(=O)[C@@H]1CCCN1C(=O)CNC(=O)OCc1ccccc1)C(=O)Nc1ccc2c(C(F)(F)F)cc(=O)oc2c1 [Z-GPR-afc, Cbz-Gly-Pro-Arg-7-amino-4-trifluoromethylcoumarin] (Cbz-Gly-Pro-Arg-{AFC}) | 27 |
